# According to US7138361B2, “Herbicidal heterocycles” (E. I. du Pont de Nemours and Company, priority 2000, dated 2006):
# Tests used:
# Format in all cases: in vivo
# Nightshade [1] = assay: Test C preemergence; settings: Rate 500 g/ha, visual evaluation after 12 to 14 days
# kochia (Kochia scoparia) = assay: Test C preemergence
# In short: (§1)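 Each compound was dissolved in a non-phytotoxic solvent system containing a surfactant and sprayed either on freshly planted seeds (preemergence) or on young plants, 2 to 18 cm high (postemergence). Ratings after 12 to 14 greenhouse days ran from 0, no effect, to 100, complete control.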
# [2] = tested on: Surinam grass (Brachiaria decumbens); assay: Test C preemergence
# In short: as §1
# [3] = tested on: bermudagrass (Cynodon dactylon); assay: Test C preemergence
# In short: as §1
# [4] = tested on: common ragweed (Ambrosia elatior); assay: Test C preemergence
# In short: as §1
# [5] = tested on: velvetleaf (Abutilon theophrasti); assay: Test C preemergence
# In short: as §1
# Sunflower = assay: Test C preemergence; settings: Rate 125 g/ha; scale 0 to 100, 0 no effect, 100 complete control
# [6] = tested on: crabgrass (Digitaria sanguinalis); assay: Test C preemergence
# In short: as §1
# [7] = tested on: yellow nutsedge (Cyperus esculentus); assay: Test C preemergence
# In short: as §1
# corn (Zea mays) = assay: Test C preemergence
# In short: as §1
# [8] = tested on: pigweed (Amaranthus retroflexus); assay: Test C preemergence
# In short: as §1
# [9] = tested on: woolly cupgrass (Eriochloa villosa); assay: Test C preemergence
# In short: as §1
# [10] = tested on: giant foxtail (Setaria faberii); assay: Test C preemergence
# In short: as §1
# [11] = tested on: johnsongrass (Sorghum halepense); assay: Test C preemergence
# In short: as §1
# [12] = tested on: goosegrass (Eleusine indica); assay: Test C preemergence
# In short: as §1
# [13] = tested on: cocklebur (Xanthium strumarium); assay: Test C preemergence
# In short: as §1
# Nightshade [14] = assay: Test C preemergence
# soybean (Glycine max) = assay: Test C preemergence
# In short: as §1
# [15] = tested on: morningglory (Ipomoea hederacea); assay: Test C preemergence; settings: for Plant response rating, Morningglory: scale 0 to 100, 0 no effect, 100 complete control
# In short: as §1
# rice (Oryza saliva) = assay: Test C flooded paddy test; settings: for Plant response rating, Rice: scale 0 to 100 (0 no effect, 100 complete control)
# In short: (§2)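 Visual injury score, 0 (no effect) to 100 (complete control), relative to controls. Paddy plants treated at 2-leaf stage; greenhouse hold 12–14 d before rating.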
# [16] = tested on: duck salad (Heteranthera limosa); assay: Test C flooded paddy test; settings: for Plant response rating, Ducksalad: scale 0 to 100 (0 no effect, 100 complete control)
# In short: as §2
# [17] = tested on: smallflower flatsedge (Cyperus difformis); assay: Test C flooded paddy test; settings: for Plant response rating, Flatsedge: scale 0 to 100 (0 no effect, 100 complete control)
# In short: as §2
# [18] = tested on: barnyardgrass (Echinochloa crus-galli); assay: Test C flooded paddy test; settings: for Plant response rating, Barnyardgrass: scale 0 to 100 (0 no effect, 100 complete control)
# In short: as §2
# [19] = Rate 125 g/ha, scale 0 to 100, 0 no effect, 100 complete control
# [20] = preemergence, Rate 62 g/ha, scale 0 to 100
# [21] = preemergence, Rate 500 g/ha, visual evaluation after 12 to 14 days
# [22] = preemergence, Rate 250 g/ha, scale 0 to 100, 0 no effect, 100 complete control
# [23] = Flooded Paddy, Rate 500 g/ha, scale 0 to 100, 0 no effect, 100 complete control
# [24] = flooded paddy test, Rate 125 g/ha
# [25] = flooded paddy test, Rate 250 g/ha
# [26] = flooded paddy test, Rate 62 g/ha, visually evaluated after 12 to 14 days, 0 = no effect, 100 = complete control
smiles,measurement,setting,value
CCC(CC)c1ccn(C2CCN(c3ccc(F)c(C(F)(F)F)c3)C2=O)n1 (stereo not drawn) [Compound 144],"Plant response rating (0 to 100), Nightshade",Nightshade [1],100
same,"Plant response rating, Kochia",kochia (Kochia scoparia); [19],100
same,"Plant response rating, Kochia",kochia (Kochia scoparia); [20],90
same,"Plant response rating (0 to 100), Kochia",kochia (Kochia scoparia); [21],100
same,"Plant response rating, Kochia",kochia (Kochia scoparia); [22],100
same,"Plant response rating, Surinam grass",[2]; [19],0
same,"Plant response rating, Surinam grass",[2]; [20],0
same,"Plant response rating (0 to 100), Surinam grass",[2]; [21],90
same,"Plant response rating, Surinam grass",[2]; [22],0
same,"Plant response rating, Bermudagrass",[3]; [19],100
same,"Plant response rating, Bermudagrass",[3]; [20],100
same,"Plant response rating (0 to 100 where 0 is no effect and 100 is complete control), Bermudagrass",[3]; [21],100
same,"Plant response rating, Bermudagrass",[3]; [22],100
same,"Plant response rating, Ragweed, Common",[4]; [19],0
same,"Plant response rating, Ragweed, Common",[4]; [20],0
same,"Plant response rating (0 to 100), Ragweed, Common",[4]; [21],50
same,"Plant response rating, Ragweed, Common",[4]; [22],30
same,"Plant response rating, Velvetleaf",[5]; [19],0
same,"Plant response rating, Velvetleaf",[5]; [20],0
same,"Plant response rating (0 to 100), Velvetleaf",[5]; [21],20
same,"Plant response rating, Velvetleaf",[5]; [22],20
same,"Plant response rating, Sunflower",Sunflower,40
same,"Plant response rating, Crabgrass",[6]; [19],100
same,"Plant response rating, Crabgrass",[6]; [20],100
same,"Plant response rating (0 to 100), Crabgrass",[6]; [21],100
same,"Plant response rating, Crabgrass",[6]; [22],100
same,"Plant response rating, Nutsedge",[7]; [19],0
same,"Plant response rating, Nutsedge",[7]; [20],0
same,"Plant response rating (0 to 100), Nutsedge",[7]; [21],0
same,"Plant response rating, Nutsedge",[7]; [22],0
same,"Plant response rating, Corn",corn (Zea mays); [19],50
same,"Plant response rating, Corn",corn (Zea mays); [20],30
same,"Plant response rating (0 to 100), Corn",corn (Zea mays); [21],60
same,"Plant response rating, Corn",corn (Zea mays); [22],50
same,"Plant response rating, Pigweed",[8]; [19],100
same,"Plant response rating, Pigweed",[8]; [20],100
same,"Plant response rating (0 to 100), Pigweed",[8]; [21],100
same,"Plant response rating, Pigweed",[8]; [22],100
same,"Plant response rating, Cupgrass, Woolly",[9]; [19],100
same,"Plant response rating, Cupgrass, Woolly",[9]; [20],100
same,"Plant response rating (0 to 100), Cupgrass, Woolly",[9]; [21],100
same,"Plant response rating, Cupgrass, Woolly",[9]; [22],100
same,"Plant response rating, Foxtail, Giant",[10]; [19],100
same,"Plant response rating, Foxtail, Giant",[10]; [20],100
same,"Plant response rating (0 to 100), Foxtail, Giant",[10]; [21],100
same,"Plant response rating, Foxtail, Giant",[10]; [22],100
same,"Plant response rating, Johnsongrass",[11]; [19],90
same,"Plant response rating, Johnsongrass",[11]; [20],0
same,"Plant response rating (0 to 100), Johnsongrass",[11]; [21],100
same,"Plant response rating, Johnsongrass",[11]; [22],100
same,"Plant response rating, Goosegrass",[12]; [19],100
same,"Plant response rating, Goosegrass",[12]; [20],100
same,"Plant response rating (0 to 100), Goosegrass",[12]; [21],100
same,"Plant response rating, Goosegrass",[12]; [22],100
same,"Plant response rating, Cocklebur",[13]; [19],60
same,"Plant response rating, Cocklebur",[13]; [20],50
same,"Plant response rating (0 to 100), Cocklebur",[13]; [21],60
same,"Plant response rating, Cocklebur",[13]; [22],60
same,"Plant response rating, Nightshade","Nightshade [14]; Rate 62 g/ha, scale 0 to 100",100
same,"Plant response rating, Nightshade",Nightshade [14]; [19],100
same,"Plant response rating, Nightshade","Nightshade [14]; Rate 250 g/ha, scale 0 to 100, 0 no effect, 100 complete control",100
same,"Plant response rating, Soybean",soybean (Glycine max); [19],50
same,"Plant response rating, Soybean",soybean (Glycine max); [20],50
same,"Plant response rating (0 to 100), Soybean",soybean (Glycine max); [21],70
same,"Plant response rating, Soybean",soybean (Glycine max); [22],70
same,"Plant response rating, Morningglory",[15]; Rate 125 g/ha,0
same,"Plant response rating (0 to 100), Morningglory",[15]; [21],30
same,"Plant response rating, Morningglory","[15]; preemergence, Rate 250 g/ha",30
same,Rice plant response rating,rice (Oryza saliva); [23],75
same,"Plant response rating, Rice",rice (Oryza saliva); [24],20
same,"Plant response rating, Rice",rice (Oryza saliva); [25],45
same,"Plant response rating (scale 0 to 100), Rice",rice (Oryza saliva); [26],20
same,Ducksalad plant response rating,[16]; [23],100
same,"Plant response rating, Ducksalad",[16]; [24],50
same,"Plant response rating, Ducksalad",[16]; [25],95
same,"Plant response rating (scale 0 to 100), Ducksalad",[16]; [26],50
same,Flatsedge plant response rating,[17]; [23],95
same,"Plant response rating, Flatsedge",[17]; [24],85
same,"Plant response rating, Flatsedge",[17]; [25],95
same,"Plant response rating (scale 0 to 100), Flatsedge",[17]; [26],85
same,Barnyardgrass plant response rating,[18]; [23],100
same,"Plant response rating, Barnyardgrass",[18]; [24],100
same,"Plant response rating, Barnyardgrass",[18]; [25],100
same,"Plant response rating (scale 0 to 100), Barnyardgrass",[18]; [26],100
